In PMC6212767 (2018):
Each block holds one compound with its values, some of them ahead of it.

Assays:
[1] = test system: poly[d(A-T)2] (DNA, polymer) AT; test: circular dichroism; conditions: 25 mM NaCl; 10 mM phosphate, pH 7.0; ~100 μM bp DNA; minor groove
[2] = test system: poly[d(G-C)2] (DNA, polymer) GC; test: circular dichroism; conditions: 25 mM NaCl; 10 mM phosphate, pH 7.0; ~100 μM bp DNA; intercalation
[3] = test system: poly[d(G-C)2] (DNA, polymer) GC; test: UV melting, 260 nm; conditions: per base
[4] = test system: poly[d(A-T)2] (DNA, polymer) AT; test: ethidium bromide displacement fluorescence; conditions: apparent; per base pair; ethidium displaced; slightly lower than with poly[d(G-C)2]
[5] = test system: poly[d(G-C)2] (DNA, polymer) GC; test: ethidium bromide displacement fluorescence; conditions: apparent, per base pair, ethidium displaced, buffer as in cited literature

binding [1]: yes
Compound: Cn1cc(NC(=O)c2cc(NC(=O)CN=C(N)N)cn2C)cc1C(=O)NCCC(=N)N

binding [2]: yes
Compound: CC[n+]1c(-c2ccccc2)c2cc(N)ccc2c2ccc(N)cc21

ΔTm ([3]; compound ratio for methyl green not stated in material): +5.2 °C
Compound: CN(C)c1ccc(C(=C2C=CC(=[N+](C)C)C=C2)c2ccc([N+](C)(C)C)cc2)cc1

binding [4]: yes
Kapp [5]: ~ 1 × 10^7 M(bp)^−1
ΔTm ([3]; r = 0.1, biphasic, first derivative transition d1, second transition d2 -1.5 ± 1.2 °C): -18.5 ± 1.2 °C
Compound: [Cl-].[Cl-].[Cl-].[Cl-].[Cu+2].[Cu+2].c1ccc(CN(Cc2ccc3ccc(CN(Cc4ccccn4)Cc4ccccn4)cc3c2)Cc2ccccn2)nc1
